Measurements: patent US20100105652A1, “PURINES AS CYSTEINE PROTEASE INHIBITORS” (Glaxo Group Limited, priority 2007, published 2010)
Where a name gives a salt, the structure may show the parent alone.

Columns and labels:
Falcipain-2 = molecular target: T1, Falcipain-2 (Plasmodium falciparum, UniProt Q8I6U4); assay: falcipain-2 enzymatic assay (fluorogenic substrate H-D-VLR-AFC, endpoint); format: biochemical; details: parasitic recombinant enzyme, pH 5.5, quenched after 60 minutes
T1 sequence (Q8I6U4 244-484): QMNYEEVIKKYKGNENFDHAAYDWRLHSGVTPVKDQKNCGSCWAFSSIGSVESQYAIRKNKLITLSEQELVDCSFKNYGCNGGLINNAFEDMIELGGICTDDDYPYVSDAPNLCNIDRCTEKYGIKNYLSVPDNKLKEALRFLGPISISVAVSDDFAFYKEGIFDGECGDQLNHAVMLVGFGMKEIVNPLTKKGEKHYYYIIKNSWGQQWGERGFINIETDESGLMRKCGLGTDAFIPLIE
Method: (§1) 1) Determination of Falcipain-2, Falcipain-3, Vivapain-2, and Cathepsin S Proteolytic Catalytic Activity
(§2) Assays for Falcipain-2, Falcipain-3, and Vivapain-2 are carried out with parasitic recombinant enzymes. Cathepsins S is carried out with human recombinant enzymes. Standard assay conditions for the determination of kinetic constants used a fluorogenic peptide substrate, typically H-D-VLR-AFC (Falcipain-2, Falcipain-3, Vivapain-2) or KQKLR-AMC (Cathepsin S) and are determined in 100 mM sodium acetate, pH 5.5, containing 10 mM DTT and 0.5 mM CHAPS (Falcipain-2, Falcipain-3, Vivapain-2), or 50 mM MES, pH 6.5, containing 0.5 mM CHAPS, 10 mM L-CYS, 5 mM EDTA (Cathepsin S). Stock substrate solutions are prepared at 20 mM in DMSO. The activity assays contained 30 uM substrate (Falcipain-2, Falcipain-3, Vivapain-2), and 30 uM substrate (Cathepsin S). All assays contained 1% DMSO. […] All assays are conducted at ambient temperature as end point assays being quenched after 60 minutes with the exception of Cathepsin S at 90 minutes, with 16.6 uM E-64 in 1% DMSO. Product formation (AFC or AMC) is determined from fluorescence (excitation at 405 nm; emission at 530 nm, AFC, or excitation at 360 nm; emission at 460 nm, AMC) monitored with a LJL Aquest (Molecular Devices) fluorescent plate reader. In the case of kinetic reads (used in mechanism of action studies), the reaction is not quenched but is read in the plate reader every 3 minutes for approximately 90 minutes. In addition, the mechanism of action studies for Falcipain-2 utilize Z-LR-AMC as the substrate. Product formation is determined from the fluorescence of AMC, measured with a LJL Acquest (Molecular Devices) fluorescent plate reader (excitation at 360 nm; emission at 460 nm).
(§3) Potential inhibitors are evaluated using the quenched read (endpoint) method. Assays are carried out in the presence of variable concentrations of test compound. Reactions are initiated by addition of enzyme and substrate to wells containing inhibitor stamped in 100% DMSO. For endpoint assays, the reaction is quenched with the addition of E64. Dose response data is fit to an IC50 curve with preset fitting tools according to equation 1:
(§4) y=a+(b−a)/(1+(10^X/10^C)^d) (1)
(§5) where y is the response at a particular inhibitor concentration x, a is the minimum response value, b is the maximum response value, c is the IC50, and d is the slope of the IC50 curve. Assuming the compound is a competitive inhibitor, the apparent KI can be calculated from IC50, as shown in equation 2: […]

Falcipain-3 = molecular target: T2, Falcipain-3 (Plasmodium falciparum, UniProt Q8IIL0); assay: falcipain-3 enzymatic assay (fluorogenic substrate H-D-VLR-AFC, endpoint); format: biochemical; details: parasitic recombinant enzyme, pH 5.5, quenched after 60 minutes
T2 sequence (Q8IIL0 243-492): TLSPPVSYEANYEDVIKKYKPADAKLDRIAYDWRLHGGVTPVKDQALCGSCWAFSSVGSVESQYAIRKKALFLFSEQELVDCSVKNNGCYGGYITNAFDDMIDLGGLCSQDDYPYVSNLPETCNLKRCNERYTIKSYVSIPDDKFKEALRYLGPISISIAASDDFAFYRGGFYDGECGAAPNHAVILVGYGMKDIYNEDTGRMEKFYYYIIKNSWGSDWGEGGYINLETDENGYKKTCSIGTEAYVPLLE
Method: as §1, §2, §3, §4, §5

[1] = test system: Plasmodium falciparum parasite; assay: whole cell activity against the Plasmodium falciparum parasite; format: cell-based
Description: Equation 7 describes the apparent KI for competitive compounds and was substituted into equations 5 and 6 to generate the relevant binding constants from the fitting routine. In addition, the initial and final velocities were fit to equation 3 to further define the binding mechanism and potency. A complete discussion of this kinetic treatment has been fully described (Morrison et al., Adv. Enzymol. Relat. Areas Mol. Biol., 1988, 61, 201). 2) Determination of Whole Cell Activity Against the Plasmodium falciparum Parasite Compounds can be evaluated for whole cell activity against the Plasmodium falciparum parasite according to the procedure described in Sijwali S, and Rosenthal P. J., (2004) Proceedings of the National Academy of Sciences of the United States of America (PNAS) 101(13), 4384-4389 (see in particular “Measurement of Parasite Growth rates and Inhibitor Sensitivity” on page 4385); IC50 values can be calculated as described in Singh A. and Rosenthal P. J., (2001) Antimicrobial Agents and Chemotherapy 45(3), 949-951 (see in particular page 950, first column); synchronised parasites can be prepared as described in Divo A. A. et al., (1985) Protozool. 32, 59-64.

Row | IC50 (Falcipain-2) [nM] | IC50 (Falcipain-3) [nM] | IC50 [1] [nM] | SMILES
1 | ≤ 1 | 2.5 to 15 | 15 to 150 | CN1CCN(Cc2ccc(C(=O)NN(c3nc(C#N)nc4c3ncn4C(=O)N3CCN(C)CC3)C3CCCCC3)cc2)CC1 [Example 38, N′-{2-cyano-9-[(4-methyl-1-piperazinyl)carbonyl]-9H-purin-6-yl}-N′-cyclohexyl-4-[(4-methyl-1-piperazinyl)methyl]benzohydrazide trifluoroacetate]
2 | 2.5 to 15 | 15 to 150 | 15 to 150 | CN1CCN(Cc2ccc(-c3cccc(C(=O)NN(c4nc(C#N)nc5c4ncn5C)C4CCCC4)n3)cc2)CC1 [Example 28, N′-(2-cyano-9-methyl-9H-purin-6-yl)-N′-cyclopentyl-6-{4-[(4-methyl-1-piperazinyl)methyl]phenyl}-2-pyridinecarbohydrazide trifluoroacetate]
3 | 1 to 2.5 | 15 to 150 | 15 to 150 | CN(C)CCCn1cnc2c(N(CC3CCCC3)NC(=O)OC(C)(C)C)nc(C#N)nc21 [Example 12, 1,1-dimethylethyl 2-{2-cyano-9-[3-(dimethylamino)propyl]-9H-purin-6-yl}-2-(cyclopentylmethyl)hydrazinecarboxylate trifluoroacetate]
4 | 2.5 to 15 | 15 to 150 | 15 to 150 | CN1CCC(CN2CCN(Cc3ccc(C(=O)NN(CC4CCCC4)c4nc(C#N)nc5c4ncn5C)cc3)CC2)CC1 [Example 2, N′-(2-cyano-9-methyl-9H-purin-6-yl)-N′-(cyclopentylmethyl)-4-({4-[(1-methyl-4-piperidinyl)methyl]-1-piperazinyl}methyl)benzohydrazide trifluoroacetate]
5 | 2.5 to 15 | 150 to 250 | 2.5 to 15 | CN1CCN(C2CCN(Cc3ccc(C(=O)NN(c4nc(C#N)nc5c4ncn5C)C4CCCC4)cc3)CC2)CC1 [Example 4, N′-(2-cyano-9-methyl-9H-purin-6-yl)-N′-cyclopentyl-4-({[4-(4-methyl-1-piperazinyl)-1-piperidinyl]methyl}benzohydrazide trifluoroacetate]
6 | ≤ 1 | 1 to 2.5 | 150 to 250 | CN1CCN(C(=O)n2cnc3c(N(NC(=O)OC(C)(C)C)C4CCCCC4)nc(C#N)nc32)CC1 [Example 35, 1,1-dimethylethyl 2-{2-cyano-9-[(4-methyl-1-piperazinyl)carbonyl]-9H-purin-6-yl}-2-cyclohexylhydrazinecarboxylate trifluoroacetate]
7 | 2.5 to 15 | 15 to 150 | 15 to 150 | CN(C)CCn1cnc2c(N(NC(=O)c3cccc(-c4ccc(CN5CCN(C)CC5)cc4)n3)C3CCCC3)nc(C#N)nc21 [Example 42, N′-{2-cyano-9-[2-(dimethylamino)ethyl]-9H-purin-6-yl}-N′-cyclopentyl-6-{4-[(4-methyl-1-piperazinyl)methyl]phenyl}-2-pyridinecarbohydrazide trifluoroacetate]
8 | 2.5 to 15 | 15 to 150 | 15 to 150 | CN1CCC(N2CCN(Cc3ccc(C(=O)NN(CC4CCCC4)c4nc(C#N)nc5c4ncn5C)cc3)CC2)CC1 [Example 18, N′-(2-cyano-9-methyl-9H-purin-6-yl)-N′-(cyclopentylmethyl)-4-({[4-(1-methyl-4-piperidinyl)-1-piperazinyl]methyl}benzohydrazide trifluoroacetate]
9 | 2.5 to 15 | 15 to 150 | 250 to 400 | CN1CCN(c2ccc(C(=O)NN(c3nc(C#N)nc4c3ncn4C)C3CCCC3)cc2)CC1 [Example 32, N′-(2-cyano-9-methyl-9H-purin-6-yl)-N′-cyclopentyl-4-(4-methyl-1-piperazinyl)benzohydrazide trifluoroacetate]
10 | 2.5 to 15 | 15 to 150 | 15 to 150 | CN(C)CCn1cnc2c(N(NC(=O)c3ccc(CN4CCN(C)CC4)cc3)C3CCCCC3)nc(C#N)nc21 [Example 44, N′-{2-cyano-9-[2-(dimethylamino)ethyl]-9H-purin-6-yl}-N′-cyclohexyl-4-[(4-methyl-1-piperazinyl)methyl]benzohydrazide trifluoroacetate]
11 | 2.5 to 15 | 250 to 400 | 15 to 150 | Cn1cnc2c(N(NC(=O)c3ccc(CN4CC(N5CCCC5)C4)cc3)C3CCCC3)nc(C#N)nc21 [Example 7, N′-(2-cyano-9-methyl-9H-purin-6-yl)-N′-cyclopentyl-4-({[3-(1-pyrrolidinyl)-1-azetidinyl]methyl}benzohydrazide trifluoroacetate]
12 | 2.5 to 15 | 15 to 150 | 15 to 150 | CN(C)CCn1cnc2c(N(CC3CCCC3)NC(=O)c3ccc(CN4CCN(C)CC4)cc3)nc(C#N)nc21 [Example 14, N′-{2-cyano-9-[2-(dimethylamino)ethyl]-9H-purin-6-yl}-N′-(cyclopentylmethyl)-4-[(4-methyl-1-piperazinyl)methyl]benzohydrazide trifluoroacetate]
13 | 2.5 to 15 | 250 to 400 | 15 to 150 | CN(C)CCn1cnc2c(N(NC(=O)c3ccc(CN4CCN(C)CC4)cc3)C3CCCC3)nc(C#N)nc21 [Example 40, N′-{2-cyano-9-[2-(dimethylamino)ethyl]-9H-purin-6-yl}-N′-cyclopentyl-4-[(4-methyl-1-piperazinyl)methyl]benzohydrazide trifluoroacetate]
14 | 2.5 to 15 | 15 to 150 | 15 to 150 | CN(C)CCn1cnc2c(N(NC(=O)OC(C)(C)C)C3CCCC3)nc(C#N)nc21 [Example 39, 1,1-dimethylethyl 2-{2-cyano-9-[2-(dimethylamino)ethyl]-9H-purin-6-yl}-2-cyclopentylhydrazinecarboxylate trifluoroacetate]
15 | 2.5 to 15 | 15 to 150 | 2.5 to 15 | CN1CCN(C(=O)C2CCN(Cc3ccc(C(=O)NN(c4nc(C#N)nc5c4ncn5C)C4CCCCC4)cc3)CC2)CC1 [Example 10, N′-(2-cyano-9-methyl-9H-purin-6-yl)-N′-cyclohexyl-4-({4-[(4-methyl-1-piperazinyl)carbonyl]-1-piperidinyl}methyl)benzohydrazide trifluoroacetate]
16 | 1 to 2.5 | 15 to 150 | 15 to 150 | CN(C)CCn1cnc2c(N(NC(=O)c3cccc(N4CCN(C)CC4)c3)C3CCCC3)nc(C#N)nc21 [Example 41, N′-{2-cyano-9-[2-(dimethylamino)ethyl]-9H-purin-6-yl}-N′-cyclopentyl-3-(4-methyl-1-piperazinyl)benzohydrazide bis(trifluoroacetate)]
17 | 1 to 2.5 | 15 to 150 | 2.5 to 15 | CN1CCN(C2CCN(Cc3ccc(C(=O)NN(c4nc(C#N)nc5c4ncn5C)C4CCCCC4)cc3)CC2)CC1 [Example 8, N′N′-(2-cyano-9-methyl-9H-purin-6-yl)-N′-cyclohexyl-4-({[4-(4-methyl-1-piperazinyl)-1-piperidinyl]methyl}benzohydrazide trifluoroacetate]
